In patent US8105577B1, “Prebiotic composition for increasing probiotic growth rate and activity” (Master Supplements, Inc., priority 2010, dated 2012):

Legend:
Format in all cases: cell-based
[1] = test system: THERALAC® Lot #32310A probiotic strains; assay: Growth of the commercial probiotic […] in MRS broth (turbidity, lactic acid, pH); conditions: for pH: 0.1% in MRS (polysorbate 80 1.0 g/liter)
Method: MRS broth was prepared with (for controls) and without (for tests) polysorbate 80 and filled into 1 liter screw cap flasks at 500 ml each and autoclaved at 121° C. for 30 minutes. Various lecithin and/or oleic acid additives, or nothing (negative control), was added to the tests flasks prior to autoclaving. The flasks were then tempered to 37° C. in a water bath and inoculated at 0.1% with […]® Lot #32310A, a commercial probiotic product (Master Supplements, Inc., Victoria, Minn.). Capsules of […]® were opened and the contents mixed aseptically to serve as the inoculum source. At an inoculation rate of 0.1%, approximately 80 million CFU was added per ml of MRS media. […]® contains (formulation strength) the following probiotic strains at the approximate CFU values listed per gram: Turbidity, pH and titrations (made with 0.1 N NaOH and reported as % lactic acid) were made at various times up to 23 hours. The results are presented below in Table VI for the 12 and 23-hour analyses.

[2] = test system: Lactobacillus salivarius Ls-33 (LS-30); assay: Growth (turbidity) and lactic acid producing activity in MRS broth, L. salivarius Ls-33; conditions: for pH: 0.1% in MRS (polysorbate 80 1.0 g/liter)
Method: (§1) Each flask was tempered to 37° C. and aseptically inoculated with 0.14 gm of the individual probiotic strains (in Examples 5 to 10 below) to be tested. At specified time intervals, a 30 ml sample from each flask was aseptically transferred into a HACH […] Turbidimeter sample cell. The turbidity of each sample was read and the results were reported in NTU's. The same 30 ml sample used for the turbidity reading was transferred into a 250 ml glass beaker, and the pH was recorded. The sample was titrated using 0.1N NaOH to an endpoint of pH 6.8, and the quantity of NaOH used was recorded. The % Lactic Acid was calculated using the following formula: % Lactic Acid=((mls of 0.1N NaOH)×(0.1N)×(90 gm/mole)×(1 L/1000 ml))×100 mls of sample % Lactic Acid=(mls of 0.1N NaOH)×(0.9) (Results reported at 12 hours and 23 hours like: 12/23 in Table V below)

[3] = test system: Lactobacillus paracasei Lpc-37 (F-19); assay: Growth (turbidity) and lactic acid producing activity in MRS broth, L. paracasei Lpc-37
Method: as §1, with “III” for “V”

[4] = test system: Bifidobacterium lactis Bl-04 (BL-34); assay: Growth (turbidity) and lactic acid producing activity in MRS broth, B. lactis Bl-04; conditions: 0.1% in MRS (polysorbate 80 1.0 g/liter)
Method: as §1, with “II” for “V”

[5] = test system: Lactobacillus rhamnosus Lr-32 (LR-44); assay: Growth (turbidity) and lactic acid producing activity in MRS broth, L. rhamnosus Lr-32; conditions: for pH: 0.1% in MRS (polysorbate 80 1.0 g/liter)
Method: as §1, with “IV” for “V”

[6] = test system: Lactobacillus acidophilus NCFM (LA-1); assay: Growth (turbidity) and lactic acid producing activity in MRS broth, L. acidophilus NCFM; conditions: for pH: 0.1% in MRS (polysorbate 80 1.0 g/liter)
Method: as §1, with “At” for “Each flask was tempered to 37° C. and aseptically inoculated with 0.14 gm of the individual probiotic strains (in Examples 5 to 10 below) to be tested. At”, “I” for “V”

[7] = 0.1% in MRS (polysorbate 80 1.0 g/liter), 12 hours

polysorbate 80
pH ([1]; 12 hours): 3.9
pH ([1]; 23 hours): 3.7
pH ([2]; 12 hours): 3.8
pH ([2]; 23 hours): 3.7
Lactic Acid % [3, 7]: 0.99%
pH [3, 7]: 4.2
pH ([3]; 0.1% in MRS (polysorbate 80 1.0 g/liter), 23 hours): 3.9
Lactic Acid % ([4]; 12 hours): 0.57%
pH ([4]; 12 hours): 4.8
Lactic Acid % ([4]; 23 hours): 0.84%
pH ([4]; 23 hours): 4.5
pH ([5]; 12 hours): 4.0
pH ([5]; 23 hours): 3.7
pH ([6]; 12 hours): 4.2
pH ([6]; 23 hours): 4.1

CCCCCCCC/C=C\CCCCCCCC(=O)O [Oleic Acid, oleic acid]
effectiveness as polysorbate 80 replacement, in words ([1]; 0.1% inclusion rate in MRS): acceptable replacement value for polysorbate 80 but is not as effective as either of the lecithins
effectiveness as polysorbate 80 replacement, in words ([2]; 0.1% inclusion rate in MRS): not as good a replacement as a lag phase is apparent at 12 hours
effectiveness as polysorbate 80 replacement, in words ([3]; 0.1% inclusion rate in MRS): shows an improvement over no polysorbate 80 but is not as effective a replacement for polysorbate 80 as sunflower lecithin
effectiveness as polysorbate 80 replacement, in words ([5]; 0.1% inclusion rate in MRS): shows an improvement over no polysorbate 80 on the 23-hour test but shows a significant lag phase at 12 hours; it is not as good a replacement for polysorbate 80 as sunflower lecithin
effectiveness as polysorbate 80 replacement (growth and lactic acid production), in words ([6]; 0.1% inclusion rate in MRS): somewhat effective as a polysorbate 80 replacement but not as effective as either sunflower or soy lecithin
